The values that follow come from patent publication US9205091B2, “Diazeniumdiolated compounds, pharmaceutical compositions, and method of treating cancer” (The United States of America, as represented by the …, priority 2009, dated 2015).

Molecules are shown by their SMILES.

Data set [1] relates to MnSOD. Nature of the data set: Anti-nitrotyrosine immunoprecipitation, anti-MnSOD immunoblot. The conditions noted are these: H1703 cells, 1 h. It counts as cell-based, human. How it is done: For immunoprecipitation, 300 μg of the cell lysate is incubated on the rotator overnight at 4° C. with 2 μg of anti-nitrotyrosine mAb and 30 μL of protein G agarose. After washing three times with lysis buffer, the beads are suspended in 30 μL of 2×NuPAGE (Invitrogen, Carlsbad, Calif.) loading buffer and heated for 10 min at 95° C. Immunoprecipitated material is resolved on SDS-PAGE followed by immunoblotting with anti-MnSOD antibody.
Western blot analysis is performed as previously described (Romanowska et al., Free Radical Biol. Med., 43:1145-1155 (2007)). Primary antibodies for caspases 3, 7, PARP and cleaved PARP, Bax, cytochrome c (Cell Signaling Technology, Danvers, Mass.), peroxiredoxins 1-6 (LabFrontier, Seoul, Korea), and nitrotyrosine and MnSOD (Millipore, Billerica, Mass.) are used.
Background: In western blotting, separated proteins are transferred to a membrane and probed.

Data set [2] has as its system mitochondrial superoxide. Nature of the data set: Mitochondrial superoxide level, MitoSOX. It counts as cell-based, human. As for the experimental part:
Mitochondrial superoxide level is measured using MitoSOX fluorescent dye (Invitrogen, Carlsbad, Calif.), according to the manufacturer's protocol. Rotenone (10 μM) is used as a positive control.

Data set [3] concerns H1944/CRL5907. Nature of the data set: MTT proliferation assay, JS-K 48 h (Example 3). The format is cell-based, human. The conditions noted are these: 10 concentrations 50 nM to 50 μM. As for the experimental part:
(§1) JS-K is synthesized as described previously (Saavedra et al., J. Org. Chem., 66: 3090-3098(2001)). Cell lines are obtained from the American Type Culture Collection (Manassas, Va.) and cultured according to the supplier's protocol. For proliferation assays cells are seeded at 2×10^4 per well in 96-well plates and allowed to adhere for 24 h. JS-K is prepared as 10 mM stock solution in DMSO. Increasing drug concentrations in 10 μL of PBS are added to 100 μL of the culture medium for 48 h. MTT assay (Promega, Madison, Wis.) is performed according to the manufacturer's protocol. Each concentration is represented in six repeats, and the screening is performed as at least two independent experiments. IC50 values are calculated using Sigma Plot software (Systat Software, Chicago, Ill.).
Background: Tetrazolium assays rely on reduction of a dye to a coloured formazan, in cell work by metabolically active cells.

The subject of data set [4] is H441/HTB174. As to the kind of experiment: MTT proliferation assay, JS-K 48 h (Example 3). The format is cell-based, human. The settings on record: 10 concentrations 50 nM to 50 μM. As for the experimental part:
as §1

For data set [5], the system named is H322/CRL5806. As to the kind of experiment: MTT proliferation assay, JS-K 48 h (Example 3). The format is cell-based, human. The settings on record: 10 concentrations 50 nM to 50 μM. As for the experimental part:
as §1

Data set [6] concerns H2122/CRL5985. Nature of the data set: MTT proliferation assay, JS-K 48 h (Example 3). The format is cell-based, human. The conditions noted are these: 10 concentrations 50 nM to 50 μM. As for the experimental part: as §1
Data set [7] concerns H1395/CRL5868. As to the kind of experiment: MTT proliferation assay, JS-K 48 h (Example 3). It counts as cell-based, human. The settings on record: 10 concentrations 50 nM to 50 μM. How it is done:
as §1

The test system of data set [8] is H838/CRL5844. Nature of the data set: MTT proliferation assay, JS-K 48 h (Example 3). The format is cell-based, human. The settings on record: 10 concentrations 50 nM to 50 μM. As for the experimental part: as §1
For data set [9], the system named is H460/HTB177. As to the kind of experiment: MTT proliferation assay, JS-K 48 h (Example 3). The format is cell-based, human. The conditions noted are these: 10 concentrations 50 nM to 50 μM. How it is done:
as §1

Data set [10] has as its system H1355/CRL5865. Nature of the data set: MTT proliferation assay, JS-K 48 h (Example 3). It counts as cell-based, human. The conditions noted are these: 10 concentrations 50 nM to 50 μM. As for the experimental part: as §1
Data set [11] has as its system H1792/CRL5895. As to the kind of experiment: MTT proliferation assay, JS-K 48 h (Example 3). It counts as cell-based, human. The conditions noted are these: 10 concentrations 50 nM to 50 μM. As for the experimental part:
as §1

Data set [12] deals with H1734/CRL5891. Nature of the data set: MTT proliferation assay, JS-K 48 h (Example 3). It counts as cell-based, human. The settings on record: 10 concentrations 50 nM to 50 μM. As for the experimental part:
as §1

Data set [13] relates to H1703/CRL5889. Nature of the data set: MTT proliferation assay, JS-K 48 h (Example 3). The settings on record: 10 concentrations 50 nM to 50 μM. It counts as cell-based, human. As for the experimental part:
as §1

Data set [14] has as its system H1693/CRL5887. Nature of the data set: MTT proliferation assay, JS-K 48 h (Example 3). It counts as cell-based, human. The settings on record: 10 concentrations 50 nM to 50 μM. As for the experimental part:
as §1

Data set [15] has as its system H2126/CRL5925. Nature of the data set: MTT proliferation assay, JS-K 48 h (Example 3). The format is cell-based, human. The settings on record: 10 concentrations 50 nM to 50 μM. How it is done:
as §1

Data set [16] deals with A549/CCL185. As to the kind of experiment: MTT proliferation assay, JS-K 48 h (Example 3). The conditions noted are these: 10 concentrations 50 nM to 50 μM. It counts as cell-based, human. As for the experimental part:
as §1

Data set [17] has as its system H2023/CRL5912. As to the kind of experiment: MTT proliferation assay, JS-K 48 h (Example 3). The settings on record: 10 concentrations 50 nM to 50 μM. It counts as cell-based, human. As for the experimental part:
as §1

For data set [18], the system named is NSCLC cell lines. As to the kind of experiment: MTT proliferation assay, JS-K, NSCLC panel summary. It counts as cell-based, human. The conditions noted are these: six cell lines; read-out: IC50 range of the sensitive cell lines. As for the experimental part:
as §1

Data set [19] can be described thus: Body weight of xenograft mice, JS-K (Example 3). It counts as in vivo. The settings on record: 6 μmol/kg i.v., three times a week for three weeks. As for the experimental part:
H1944 or H1703 cells are injected at 5×10^6 s.c. into a flank of 7-week-old female athymic NCr-nu/nu mice (Charles River, Wilmington, Mass.). The drug injections are initiated when the tumors reached 2×2×2 mm (typically 3-4 weeks). JS-K is formulated in Pluronic P123 (P123) (BASF, Florham Park, N.J.) micelles. Animals are treated three times a week for three weeks with i.v. tail vein injections of either vehicle (2.25% P123 in PBS) or JS-K (6 μmol/kg in the vehicle). Tumors are measured using a caliper twice a week, and the tumor volumes are calculated using a formula for ellipsoid volume, π/6×L×W×H (Tomayko and Reynolds, 1989). The non-parametric Mann-Whitney test is utilized for statistical comparisons of tumor volumes at each time point. Body weights are taken before each drug injection. Animals are sacrificed 2 h after the last drug injection. Blood is collected by cardiac puncture under isoflurane anesthesia, for testing for cytokines. Cytokines in serum are measured using a mouse Th1/2 multiplex assay (Meso Scale Discovery, Gaithersburg, Md.), according to the manufacturer's protocol. There were 9-13 mice/group at termination.

The subject of data set [20] is H441. Nature of the data set: CellTiter 96 MTT cell proliferation assay (Example 9). The format is cell-based, human. As for the experimental part:
(§2) Cell lines derived from human non-small cell lung cancers are obtained from American Type Culture Collection (ATCC, Manassas, Va.), and are designated by their NCI numbers. Cells are maintained in RPMI 1640 medium (Gibco, Invitrogen, Carlsbad, Calif.), supplemented with 10% fetal calf serum (Gemini Bio-Products, Sacramento, Calif.), 100 U/mL penicillin/streptomycin, and 2 mM glutamine at 37° C. and 5% CO2.
(§3) For proliferation assays cells are seeded at 2×10^4/well in 96-well plates, allowed to adhere for 24 hrs, and then are treated with the drug or DMSO as a control for 48 hours. […] Compounds are prepared as 10 mM stock solution in dimethyl sulfoxide (Sigma, St. Louis, Mo.). Increasing drug concentrations in 10 μL of phosphate-buffered saline (PBS) are added to 100 μL of the culture medium and incubated at 37° C. for 72 h. The CellTiter 96 non-radioactive cell proliferation assay (MTT assay, Promega, Madison, Wis.), is performed according to the manufacturer's protocol. Each compound concentration is represented in six repeats, and the screening is performed as at least two independent experiments. IC50 values are calculated using Sigma Plot software (Systat Software).

In data set [21] the test system is H1703. The description is as above. It counts as cell-based, human. As for the experimental part:
as §2, §3

The subject of data set [22] is H1944. Described as above. The format is cell-based, human. As for the experimental part:
as §2, §3

Regarding `CCOC(=O)N1CCN(/[N+]([O-])=N/Oc2ccc([N+](=O)[O-])cc2[N+](=O)[O-])CC1` [Compound 1], in [1], the “nitrotyrosine level in MnSOD” value is “increase”. Besides, the mitochondrial superoxide generation entry in [2] is recorded as “increase”. The IC50 in data set [3] was 17.6 µM; in [4] it was 1.01 µM; in data set [5], 8.71 µM; in [6], 6.09 µM; in data set [7], 3.17 µM; in data set [8] it was 5.84 µM. Moreover, the IC50 in data set [9] is 7.61 µM; in [10], 7.93 µM; in data set [11] it was 9.08 µM; in [12], 0.36 µM; in data set [13], 0.4 µM; in data set [14], 0.33 µM. Further, the IC50 in [15] is 4.13 µM; in [16], 7.6 µM; in data set [17], 11.6 µM; in [18] it was 0.33 to 1.01 µM; in [20], 0.94 µM; in data set [21], 0.57 µM. The molecule further returned an IC50 in [22] of over 10 µM. The “effect on body weight” value in data set [19] is listed as “did not affect body weight”.

By IC50 is commonly meant the concentration that gives 50% inhibition.
